As a reminder, the IC50 is the point on the concentration scale where inhibition reaches its midpoint. A high value points to a need for much substance.

The values that follow come from BindingDB's records for doi:10.7270/Q21V5H4F (n/a, 1992).

The target in this experiment is HIV-1 RT (reverse transcriptase). Briefly: Inhibitory concentration against HIV-1 RT was determined.

For `O=C(C[C@H]1C(=O)Nc2ccccc2-c2cccn21)OCc1ccccc1`, the half-maximal inhibitory concentration (IC50) worked out at 0.115 µM.
